Assay results from publication PMC8684776, “Discovery and characterization of potent And‐1 inhibitors for cancer treatment” (Clinical and Translational Medicine, 2021).

Columns and labels:
[1] = test system: IGROV1 CR xenografts; assay: Cisplatin resistant IGROV1 CR xenograft in nude mice; assay type: in vivo, mouse
[2] = test system: IGROV1 CR cells; assay: SRB cell viability assay, combination with cisplatin; assay type: cell-based, human; details: by combination index (CI < 1 synergism)
Procedure: The assay was as previously described.[45]
Synergy of each combination was indicated as combination index (CI) values. […] (C) Tumors of IGROV1 CR xenograft treated with control (vehicle), cisplatin (8 mg/kg/day intraperitoneally), CH3 (20 mg/kg/3days intraperitoneally), or a combination of CH3 and cisplatin for 3 weeks. Ruler scale is in centimeters. (D) Growth curves of IGROV1 CR xenografts. […] (E) IHC staining against And‐1 antibodies of tumor samples from four treated groups of mice. Scale bar: 50 μm. […] Ruler scale is in centimeters. (G) Growth curves of IGROV1 CR xenografts. […] (H) IHC staining against And‐1 antibodies of tumor samples from four treated groups of mice. Scale bar: 50 μm.

[3] = test system: MCF7 xenografts; assay: MCF7 xenograft in nude mice; assay type: in vivo, mouse
Procedure: (A) Tumours of IGROV1 xenograft treated with vehicle or CH3 (20 or 40 mg/kg/3days intraperitoneally) for 3 weeks. Ruler scale is in centimeters. (B) Growth curves of IGROV1 xenografts. Data are represented as means ± SEM. ****p < 0.0001. (C) IHC staining against acidic nucleoplasmic DNA‐binding protein 1 (And‐1) and cleaved‐caspase3 antibodies of tumor samples from 3 groups of mice. Scale bar: 50 μm. Lower panel, quantification of And‐1and cleaved‐caspase 3 IHC score in tumors treated in A. ****p < 0.0001. (D) Tumors of MCF7 xenograft treated with vehicle or CH3 (20 or 40 mg/kg/3days intraperitoneally) for 3 weeks. Ruler scale is in centimeters. (E) Growth curves of MCF7 xenografts. Data are represented as means ± SEM. ****p < 0.0001. (F) IHC staining against And‐1 and cleaved‐caspase3 antibodies of tumor samples from three treated groups of mice. Scale bar: 50 μm. Lower panel, quantification of And‐1and cleaved‐caspase 3 IHC score in tumors treated in (D). *p < 0.1; **p < 0.01; ***p < 0.001; ****p < 0.0001
into subsequent experiment groups.
represent the longest and shortest diameters, respectively. During the drug treatment, the tumor volume
and body weight were measured. […]

## OB1OCc2cc(/C=C/c3ccc(Cl)c(Cl)c3)ccc21 [CH3, (E)‐5‐(3,4‐dichlorostyryl)benzo[c][1,2]oxaborol‐1(3H)‐ol]
[1]
  expression of And‐1 in tumours (IHC): suppressed expression of And‐1 in tumours
[1]; cisplatin 8 mg/kg + CH3 20 mg/kg or BZA 2 mg/kg, intraperitoneal, 3 weeks
  resistant tumour growth, combination with cisplatin vs cisplatin alone: significantly reduced resistant tumour growth
[2]
  synergy with cisplatin to inhibit cell proliferation: significant synergy with cisplatin
[3]; MCF7 xenograft tumors
  And‐1 expression in tumor tissues (IHC): inhibited And‐1 expression
  cleaved caspase‐3 expression in tumor tissues (IHC): induced the expression of cleaved caspase‐3
[3]; breast MCF7 xenografts, nude mice, 20 mg/kg or 40 mg/kg intraperitoneal, 3 weeks
  tumor growth: significantly reduced tumor growth
